Data on eleven compounds can be found in patent US20230295197A1, “STAT5 and STAT6 Degraders and Uses Thereof” (REGENTS OF THE UNIVERSITY OF MICHICAN, priority 2022, published 2023).

For this test, the system named is STAT5. The experiment in a line: Immunoblotting (Western blot) analysis of STAT5 degradation efficiency of degraders in treated cells. It counts as cell-based. In outline: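 Degradation read by quantitative near-infrared Western blot: equal protein loads (20-40 μg) from compound-treated versus untreated cells, probed overnight at 4° C. for STAT5 or STAT6 with GAPDH reference. Compound concentrations and exposure times as indicated; cells grown in medium with 10% FBS at 37° C.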

Where [1] appears, read: MOLM-16 cells, numeric bound, read-out: DC50 S5 MOLM-16.
Where [2] appears, read: SKNO1 cells, read-out: DC50 S5 SKNO1.
Setting [3] is: KU-812 cells, read-out: DC50 S5 KU-812.

Each structure is given as a SMILES string. Like-named read-outs stand apart in the source and are kept apart here.

In general, DC50 refers to the midpoint of the concentration-degradation curve.

`CC(C)(C)[C@H](NC(=O)c1cc2cc(C(F)(F)P(=O)(O)O)ccc2s1)C(=O)N1CCC[C@H]1C(=O)N(CCC(=O)NCCCC#Cc1cccc2c1CN(C1CCC(=O)NC1=O)C2=O)c1cccc(C#N)c1` (stereo partly drawn) [Compound 643, ((2-(((2S)-1-((2S)-2-((3-cyanophenyl)(3-((5-(2-(2,6-dioxopiperidin-3-yl)-1-oxoisoindolin-4-yl)pent-4-yn-1-yl)amino)-3-oxopropyl)carbamoyl)pyrrolidin-1-yl)-3,3-dimethyl-1-oxobutan-2-yl)carbamoyl)benzo[b]thiophen-5-yl)difluoromethyl)phosphonic acid]: the 50% degradation concentration (DC50) is, setting by setting: under setting [1], greater than 300 nM; under setting [2], greater than 10000 nM.
Regarding `CC(C)(C)[C@H](NC(=O)c1cc2cc(C(F)(F)P(=O)(O)O)ccc2s1)C(=O)N1CCC[C@H]1C(=O)N(CCC(=O)NCCCC#Cc1cccc2c1CN(C1CCC(=O)NC1=O)C2=O)c1ccc(C(F)(F)F)cc1` (stereo partly drawn) [Compound 644, ((2-(((2S)-1-((2S)-2-((3-((5-(2-(2,6-dioxopiperidin-3-yl)-1-oxoisoindolin-4-yl)pent-4-yn-1-yl)amino)-3-oxopropyl)(4-(trifluoromethyl)phenyl)carbamoyl)pyrrolidin-1-yl)-3,3-dimethyl-1-oxobutan-2-yl)carbamoyl)benzo[b]thiophen-5-yl)difluoromethyl)phosphonic acid], the 50% degradation concentration (DC50) is, setting by setting: under setting [1], greater than 300 nM; under setting [2], 1000 to 10000 nM.
Taken in the same sequence, the figures for `CC(C)(C)[C@H](NC(=O)c1cc2cc(C(F)(F)P(=O)(O)O)ccc2s1)C(=O)N1CCC[C@H]1C(=O)N(CCC(=O)NCCCC#Cc1cccc2c1CN(C1CCC(=O)NC1=O)C2=O)c1cccc(C(F)(F)F)c1` (stereo partly drawn) [Compound 645, ((2-(((2S)-1-((2S)-2-((3-((5-(2-(2,6-dioxopiperidin-3-yl)-1-oxoisoindolin-4-yl)pent-4-yn-1-yl)amino)-3-oxopropyl)(3-(trifluoromethyl)phenyl)carbamoyl)pyrrolidin-1-yl)-3,3-dimethyl-1-oxobutan-2-yl)carbamoyl)benzo[b]thiophen-5-yl)difluoromethyl)phosphonic acid] were greater than 300 nM and greater than 10000 nM.
Take `Cc1ccc(N(CCC(=O)NCCCC#Cc2cccc3c2CN(C2CCC(=O)NC2=O)C3=O)C(=O)[C@@H]2CCCN2C(=O)[C@@H](NC(=O)c2cc3cc(C(F)(F)P(=O)(O)O)ccc3s2)C(C)(C)C)cc1` (stereo partly drawn) [Compound 646, ((2-(((2S)-1-((2S)-2-((3-((5-(2-(2,6-dioxopiperidin-3-yl)-1-oxoisoindolin-4-yl)pent-4-yn-1-yl)amino)-3-oxopropyl)(p-tolyl)carbamoyl)pyrrolidin-1-yl)-3,3-dimethyl-1-oxobutan-2-yl)carbamoyl)benzo[b]thiophen-5-yl)difluoromethyl)phosphonic acid]: the DC50 by setting is: under setting [1], greater than 300 nM; under setting [2], 100 to 1000 nM.
In the case of `CC(C)(C)c1ccc(N(CCC(=O)NCCCC#Cc2cccc3c2CN(C2CCC(=O)NC2=O)C3=O)C(=O)[C@@H]2CCCN2C(=O)[C@@H](NC(=O)c2cc3cc(C(F)(F)P(=O)(O)O)ccc3s2)C(C)(C)C)cc1` (stereo partly drawn) [Compound 647, ((2-(((2S)-1-((2S)-2-((4-(tert-butyl)phenyl)(3-((5-(2-(2,6-dioxopiperidin-3-yl)-1-oxoisoindolin-4-yl)pent-4-yn-1-yl)amino)-3-oxopropyl)carbamoyl)pyrrolidin-1-yl)-3,3-dimethyl-1-oxobutan-2-yl)carbamoyl)benzo[b]thiophen-5-yl)difluoromethyl)phosphonic acid], the 50% degradation concentration (DC50) reads like this: under setting [1], greater than 300 nM; under setting [2], 1000 to 10000 nM.
In the case of `CC(C)(C)[C@H](NC(=O)c1cc2cc(C(F)(F)P(=O)(O)O)ccc2s1)C(=O)N1CCC[C@H]1C(=O)N(CCC(=O)NCCCC#Cc1cccc2c1CN(C1CCC(=O)NC1=O)C2=O)c1ccc(-c2cccs2)cc1` (stereo partly drawn) [Compound 648, ((2-(((2S)-1-((2S)-2-((3-((5-(2-(2,6-dioxopiperidin-3-yl)-1-oxoisoindolin-4-yl)pent-4-yn-1-yl)amino)-3-oxopropyl)(4-(thiophen-2-yl)phenyl)carbamoyl)pyrrolidin-1-yl)-3,3-dimethyl-1-oxobutan-2-yl)carbamoyl)benzo[b]thiophen-5-yl)difluoromethyl)phosphonic acid], the DC50 by setting is: under setting [3], 100 to 1000 nM; (MOLM-16 cells, class symbols, read-out: DC50 S5 MOLM-16) less than 100 nM; under setting [2], 100 to 1000 nM.
Take `CC(C)(C)[C@H](NC(=O)c1cc2cc(C(F)(F)P(=O)(O)O)ccc2s1)C(=O)N1CCC[C@H]1C(=O)N(CCC(=O)NCCCC#Cc1cccc2c1CN(C1CCC(=O)NC1=O)C2=O)c1cccc(-c2ccccc2)c1` (stereo partly drawn) [Compound 649, ((2-(((2S)-1-((2S)-2-([1,1′-biphenyl]-3-yl(3-((5-(2-(2,6-dioxopiperidin-3-yl)-1-oxoisoindolin-4-yl)pent-4-yn-1-yl)amino)-3-oxopropyl)carbamoyl)pyrrolidin-1-yl)-3,3-dimethyl-1-oxobutan-2-yl)carbamoyl)benzo[b]thiophen-5-yl)difluoromethyl)phosphonic acid]: the 50% degradation concentration (DC50) under setting [1] was greater than 300 nM and the DC50 under setting [2] lay within 1000 to 10000 nM.
For `CC(C)(C)[C@H](NC(=O)c1cc2cc(C(F)(F)P(=O)(O)O)ccc2s1)C(=O)N1CCC[C@H]1C(=O)N(CCC(=O)NCCCC#Cc1cccc2c1CN(C1CCC(=O)NC1=O)C2=O)c1ccc(C2CCOCC2)cc1` (stereo partly drawn) [Compound 651, ((2-(((2S)-1-((2S)-2-((3-((5-(2-(2,6-dioxopiperidin-3-yl)-1-oxoisoindolin-4-yl)pent-4-yn-1-yl)amino)-3-oxopropyl)(4-(tetrahydro-2H-pyran-4-yl)phenyl)carbamoyl)pyrrolidin-1-yl)-3,3-dimethyl-1-oxobutan-2-yl)carbamoyl)benzo[b]thiophen-5-yl)difluoromethyl)phosphonic acid], in that order: greater than 300 nM and greater than 10000 nM.
Take `CN(CCCC#Cc1cccc2c1CN(C1CCC(=O)NC1=O)C2=O)C(=O)CCN(C(=O)[C@@H]1CCCN1C(=O)[C@H](CCc1ccccc1)NC(=O)c1cc2cc(C(F)(F)P(=O)(O)O)ccc2s1)c1ccc(-c2nccs2)cc1` (stereo partly drawn) [Compound 682, ((2-(((2S)-1-((2S)-2-((3-((5-(2-(2,6-dioxopiperidin-3-yl)-1-oxoisoindolin-4-yl)pent-4-yn-1-yl)(methyl)amino)-3-oxopropyl)(4-(thiazol-2-yl)phenyl)carbamoyl)pyrrolidin-1-yl)-1-oxo-4-phenylbutan-2-yl)carbamoyl)benzo[b]thiophen-5-yl)difluoromethyl)phosphonic acid]: the half-maximal degradation concentration (DC50) lay in the range of 100 to 1000 nM under setting [3] and 100 to 1000 nM under setting [2].
On to `CN(CCCC#Cc1cccc2c1CN(C1CCC(=O)NC1=O)C2=O)C(=O)CCN(C(=O)[C@@H]1CCCN1C(=O)[C@@H](NC(=O)c1cc2cc(C(F)(F)P(=O)(O)O)ccc2s1)C(C)(C)C)c1ccc2scnc2c1` (stereo partly drawn) [Compound 684, ((2-(((2S)-1-((2S)-2-(benzo[d]thiazol-5-yl(3-((5-(2-(2,6-dioxopiperidin-3-yl)-1-oxoisoindolin-4-yl)pent-4-yn-1-yl)(methyl)amino)-3-oxopropyl)carbamoyl)pyrrolidin-1-yl)-3,3-dimethyl-1-oxobutan-2-yl)carbamoyl)benzo[b]thiophen-5-yl)difluoromethyl)phosphonic acid], for which the DC50 under setting [3] is 100 to 1000 nM and the DC50 under setting [2] lay within 100 to 1000 nM.
For the compound `CN(CCCC#Cc1cccc2c1CN(C1CCC(=O)NC1=O)C2=O)C(=O)CCN(C(=O)[C@@H]1CCCN1C(=O)[C@@H](NC(=O)c1cc2cc(C(F)(F)P(=O)(O)O)ccc2s1)C(C)(C)C)c1ccc2sccc2c1` (stereo partly drawn) [Compound 685, ((2-(((2S)-1-((2S)-2-(benzo[b]thiophen-5-yl(3-((5-(2-(2,6-dioxopiperidin-3-yl)-1-oxoisoindolin-4-yl)pent-4-yn-1-yl)(methyl)amino)-3-oxopropyl)carbamoyl)pyrrolidin-1-yl)-3,3-dimethyl-1-oxobutan-2-yl)carbamoyl)benzo[b]thiophen-5-yl)difluoromethyl)phosphonic acid], the 50% degradation concentration (DC50) by setting is: under setting [3], 100 to 1000 nM; under setting [2], 100 to 1000 nM.
